Laboratory results published in patent publication US9110051B2, “Pharmacologic method of lowering cholesterol production” (The University of Chicago, priority 2004, dated 2015).

Tests used:
Format in all cases: cell-based
[1] = test system: human fibroblast cell line; test: Fibroblast plasma membrane cholesterol susceptibility to cholesterol oxidase; conditions: adding 0.1-1.0 mM octanol
Protocol: A human fibroblast cell line is grown in bulk culture and seeded into microtiter wells the day before experimentation. The fibroblast cells from the fibroblast cell line are rinsed and treated with octanol plus cholesterol oxidase as in Example 2. The increased level of plasma membrane cholesterol activity is detected in two ways. First, plasma membrane cholesterol activity is detected by susceptibility to cholesterol oxidase. […] Cell lysis caused by cholesterol oxidation can also be determined by measuring increased cell permeability using a plate fluorescence reader and the impermeable indicator of potassium ions, PBFI, or another indicator system.

red blood cells = test: Lysis of red blood cells by saponin; conditions: saponin 0-8 μg/well, 30 minutes, compared to solvent control, FIG. 6
Protocol: Red blood cells were pre-treated with either octanol, diglyceride, ceramide, or solvent before incubation with varying concentrations of saponin. The decrease in optical absorbance at 500 nm indicates increasing lysis.
Red cell membranes are treated with octanol, diglyceride, ceramide, or solvent before incubation with different concentrations of saponin (0-8 μg/well) for 30 minutes. Optical absorbance at OD500 is measured. Decreased optical absorbance indicates increasing lysis by saponin.

human fibroblasts = test: Effect of octanol on fibroblast cholesterol; conditions: 24 h in growth medium with octanol, FIG. 4
Protocol: FIG. 4 depicts the effect of octanol on fibroblast cholesterol. Replicate flasks of fibroblasts were incubated for 24 h in growth medium with octanol. The cells were then assayed for cholesterol and protein.
The cultured cells described in Example 3 will be plated in microtiter wells and incubated with test compounds at 37° C. for two days to allow a full metabolic response. The drug will then be washed away, amphotericin B added to the wells and cell lysis followed from the leakage of potassium ions or another indicator, as above. Resistance to amphotericin B lysis will indicate that the objective has been achieved: the reduction of plasma membrane cholesterol in response to the test compound. Other polyene antibiotics (e.g., nystatin and filipin) will be tested in place of amphotericin B in order to discern their effects. In contrast to the screens described in the previous examples, which are used to identify compounds that raise the activity of membrane cholesterol, the present assay will measure the long-term effect of modulating cholesterol levels. Agents that increase plasma membrane cholesterol activity, when used as drugs, will signal cells to reduce their cholesterol accretion homeostatically. […] This can be detected by their increased resistance to amphotericin B, which normally lyses these cells.

human red blood cells = test: Screen using red blood cell lysis by amphotericin B; conditions: for effect on amphotericin B lysis of red cells (activity of membrane cholesterol): cholesterol lowered with cyclodextrin, turbidity or by eye, FIGS. 1 and 2; for red blood cell lysis caused by amphotericin B (visual screen): cholesterol-modified cells, octanol 0.2 μmol/well or lysophosphatidylcholine 1 μg/well, amphotericin B 20 μg/well, 1 h, room temperature
Protocol: Human red blood cells were either freshly drawn or taken from an outdated blood bank source and then washed and suspended in physiological buffer. The cholesterol content of washed human red blood cells was varied with methyl-β-cyclodextrin/methyl-β-cyclodextrin-cholesterol complexes. The cells were distributed into a 96-well plate and incubated for a few minutes with saline (O), 0.2 μmol/well octanol (V) or 1 μg/well lysophosphatidylcholine (□). Amphotericin B (20 μg/well) was added and the plate incubated for 1 hour at room temperature. […] In FIG. 1, turbidity (signifying intact cells) was determined in a plate-reading photometer as optical density (OD) at 500 nm; loss of OD signifies lysis. In FIG. 1, results are plotted versus total human red blood cell cholesterol, assessed with Amplex™ Red, Molecular Probes, Eugene, Oreg. The cholesterol content of unmodified red blood cells was 0.55 μg/μl cells, close to the threshold of the control curve.
Cells with modified cholesterol were placed in the conical wells of a 96-well plate, briefly pre-incubated with the two test compounds, and then treated with amphotericin B (20 μg/well) for one hour at room temperature. The plate was photographed after the cells settled. Row A: saline control. Cells depleted of cholesterol (wells 1-6) resisted lysis (seen as a loss of the central button). Row B: n-octanol (0.2 μmol/well). […] Row C: Lysophosphatidylcholine (1 μg/well).
Human red cells (freshly drawn or from an outdated blood bank source) were washed and suspended in physiological buffer. […] The cholesterol modified cells were placed in the wells of a microtiter plate and incubated for a few minutes at room temperature with octanol and lysophosphatidylcholine, which can be replaced with a battery of drugs (individually or in mixtures). Amphotericin B was then added and the plate incubated at room temperature for an hour. Cell lysis was scored by reading light scattering in a plate-reading photometer (FIG. 1) or, more simply, by letting the unlysed cells settle for an hour in conical wells and then assessing hemolysis by eye (FIG. 2).
Polyene antibiotics such as amphotericin B are known to promote the disruption of cholesterol containing membranes. However, this action depends critically on the cholesterol level in the membrane (see the control curves, O - - - O, in FIGS. 1 and 2). The critical cholesterol content for lysis is close to the physiological level in human fibroblast plasma membranes, for the same reason that ER cholesterol responds dramatically near the physiological content of the plasma membrane. […]

red cell membranes = test: Oxidation of red cell membrane cholesterol by cholesterol oxidase; conditions: 0-12 μmolar analog pretreatment; cholesterol oxidase 1 h, FIG. 5
Protocol: The red cell membranes were pretreated with ceramide or diglycerides and then treated with cholesterol oxidase for a hour. An increase in oxidation following cholesterol oxidase treatment signifies an increase in active cellular cholesterol.
Red cell membrane lysis is measured using cholesterol oxidase as set forth in the examples above. Prior to lysis, red cell membranes are treated with either differing amounts of a ceramide analog (0-12 μmolar) or differing amounts of a diglyceride analog (0-12 μmolar). The increased level of plasma membrane cholesterol activity is detected by susceptibility to cholesterol oxidase and measured as a % of oxidation.

| Compound | oxidation of fibroblast cholesterol by cholesterol oxidase [1] | lysis of red blood cells by saponin (OD500) (red blood cells) | fibroblast cell cholesterol after prolonged culture (human fibroblasts) | effect on amphotericin B lysis of red cells (activity of membrane cholesterol) (human red blood cells) | red blood cell lysis caused by amphotericin B (visual screen) (human red blood cells) | susceptibility of red cell cholesterol to oxidation by cholesterol oxidase (% of oxidation) (red cell membranes) |
| --- | --- | --- | --- | --- | --- | --- |
| CCCCCCCCO [octanol, n-octanol] | readily oxidized | increase lysis of red blood cells at lower concentrations of saponin | resulted in cholesterol reduction | favors amphotericin B lysis | Even cholesterol depleted cells were lysed by amphotericin B | – |
| ceramide | – | increase lysis of red blood cells at lower concentrations of saponin | – | – | – | increase the susceptibility of red cell cholesterol to oxidation |
| lysophosphatidylcholine | – | – | – | has the opposite effect | Even enriched cells resisted amphotericin B lysis | – |
